Patent US20040014808A1, “Novel derivatives of carnosic acid” (priority 2002, published 2004)

Experiment: DPPH free-radical scavenging assay
Assay type: biochemical
Conditions: 300 μM DPPH in methanol, room temperature, 30 min, read at 517 nm, mean of 3 observations; for IC50: read-out: IC50 (μM), concentration of sample required to scavenge 50% DPPH free radicals
Experimental: DPPH Radical Scavenging Assay. The DPPH free radical scavenging assay is based on the abilities of compounds to quench stable DPPH free radicals (Lee, S. K.; Mbwambo, Z. H.; Chung, H. S.; Luyengi, L.; Gamez, E. J. C.; Mehta, R. G.; Kinghorn, A. D.; Pezzuto, J. M. Comb. Chem. High Throughput Screen. 1998, 1, 35-46). Reaction mixtures (200 μL) were prepared by combining multiple concentrations of test sample in methanol (10 μL) with DPPH (Aldrich, Milwaukee, Wis.) in methanol (190 μL). The final DPPH concentration was 300 μM. The reaction mixtures were incubated in 96-well microtiter plates at room temperature for 30 min. After the reaction, reduction of the radical was then measured at 517 nm. Percent inhibition by sample treatment was determined by comparison with controls containing no test samples. IC50 values denote the concentration of sample, required to scavenge 50% DPPH free radicals (Ibid.).

| Compound | IC50 (μg/mL), concentration of sample required to scavenge 50% DPPH free radicals | IC50 |
| --- | --- | --- |
| Oc1cccc(O)c1O [Pyrogallol] | 4.8 µg/mL | 37.8 µM |
| CCCOC(=O)c1cc(O)c(O)c(O)c1 [Propyl gallate] | 9.8 µg/mL | 46.1 µM |
| COc1c(C(C)C)cc2c(c1O)C1(CO)CCCC(C)(C)C1CC2 (centres unmarked) [Compound 4, 11,20-dihydroxy-12-methoxy-abiet-8,11,13-triene] | 27.7 µg/mL | 83.4 µM |
| CC(C)c1cc2c(c(O)c1O)[C@@]13CCCC(C)(C)[C@@H]1C[C@@H]2OC3=O [Compound 5, 11,12-dihydroxy-7-10-(epoxymethano)-abiet-8,11,13-triene-20-one] | 37.9 µg/mL | 114 µM |
| CC(C)c1cc2c(c(O)c1O)[C@@]1(C(=O)O)CCCC(C)(C)[C@@H]1CC2 [Compound 1, carnosic acid] | 18.7 µg/mL | 53.3 µM |

Results, then the molecule that gave them:

| IC50 (μg/mL), concentration of sample required to scavenge 50% DPPH free radicals | IC50 | Compound |
| --- | --- | --- |
| 11.8 µg/mL | 66.8 µM | O=C1O[C@H]([C@@H](O)CO)C(O)=C1O [Ascorbic acid] |
| 23.9 µg/mL | 66 µM | CC1(C)CCCC23C(=O)OC(CC12)c1cc(C(CO)CO)c(O)c(O)c13 (centres unmarked) [Compound 6, 11,12,16,17-tetrahydroxy-7-10-(epoxymethano)-abiet-8,11,13-triene-20-one] |
